# Assay results from US20050197338A1, “Substituted pyrazole urea compounds for the treatment of inflammation” (priority 2003, published 2005).
# Structures can show the parent of a compound that is named as a salt.
# Biological target: T1, human IKK-2 (rhIKK-2 homodimer) (Homo sapiens, UniProt O14920)
# T1 construct: FLAG (DYKDDDDKD) (C); made in house; host or cells: insect cells (baculovirus, pFastBac)
# T1 sequence (O14920 1-756): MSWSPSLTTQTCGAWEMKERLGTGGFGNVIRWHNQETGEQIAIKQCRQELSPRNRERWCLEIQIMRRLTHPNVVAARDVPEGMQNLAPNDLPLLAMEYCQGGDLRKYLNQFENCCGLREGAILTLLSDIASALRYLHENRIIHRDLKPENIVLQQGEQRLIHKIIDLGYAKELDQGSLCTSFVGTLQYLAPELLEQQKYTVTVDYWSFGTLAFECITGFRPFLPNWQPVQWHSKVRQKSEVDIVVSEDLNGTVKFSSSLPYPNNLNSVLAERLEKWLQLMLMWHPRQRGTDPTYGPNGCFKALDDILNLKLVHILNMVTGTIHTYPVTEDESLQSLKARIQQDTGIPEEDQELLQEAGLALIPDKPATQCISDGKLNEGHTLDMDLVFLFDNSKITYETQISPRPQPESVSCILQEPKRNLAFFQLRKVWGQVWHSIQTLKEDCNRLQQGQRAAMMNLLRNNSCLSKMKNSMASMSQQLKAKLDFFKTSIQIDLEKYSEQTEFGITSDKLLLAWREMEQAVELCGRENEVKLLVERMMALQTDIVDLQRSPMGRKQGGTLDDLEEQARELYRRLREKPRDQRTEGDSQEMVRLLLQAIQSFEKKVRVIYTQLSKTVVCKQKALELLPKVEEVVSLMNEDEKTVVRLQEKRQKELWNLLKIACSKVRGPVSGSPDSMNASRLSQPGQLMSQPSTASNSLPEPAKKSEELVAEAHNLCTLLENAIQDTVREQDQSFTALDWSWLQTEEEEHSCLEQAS
# Assay: IKK-2 Resin Enzyme Assay (Human IKK-2 Enzyme Assay)
# Type: biochemical
# Details: human IKK-2, resin enzyme assay; read-out: IC50 (μM) hIKK-2
# Source text: Materials: SAM^2™96 Biotin capture plates were from Promega. Anti-FLAG affinity resin, FLAG-peptide, NP-40 (Nonidet P-40), BSA, ATP, ADP, AMP, LPS (E. coli serotype 0111:B4), and dithiothreitol were obtained from Sigma Chemicals. Antibodies specific for NEMO (IKK-γ) (FL-419), IKK-1 (H-744), IKK-2(H-470) and IκBa(C-21) were purchased from Santa Cruz Biotechnology. Ni-NTA resin was purchased from Qiagen. Peptides were purchased from American Peptide Company. Protease inhibitor cocktail tablets were from Boehringer Mannheim. Sephacryl S-300 column was from Pharmacia LKB Biotechnology. Centriprep-10 concentrators with a molecular weight cutoff of 10 kDa and membranes with molecular weight cut-off of 30 kDa were obtained from Amicon. [γ-^33P] ATP (2500 Ci/mmol) and [γ-^32P] ATP (6000 Ci/mmol) were purchased from Amersham. The other reagents used were of the highest grade commercially available.
# Cloning and Expression: cDNAs of human IKK-1 and IKK-2 were amplified by reverse transcriptase-polymerase chain reaction from human placental RNA (Clonetech). hlKK-1 was subcloned into pFastBac HTa (Life Technologies) and expressed as N-terminal His6-tagged fusion protein. The hlKK-2 cDNA was amplified using a reverse oligonucleotide primer which incorporated the peptide sequence for a FLAG-epitope tag at the C-terminus of the IKK-2 coding region (DYKDDDDKD). The hlKK-2:FLAG cDNA was subcloned into the baculovirus vector pFastBac. The rhIKK-2 ([…]) mutant was constructed in the same vector used for wild type rhIKK-2 using a QuikChange™ mutagenesis kit (Stratagene). Viral stocks of each construct were used to infect insect cells grown in 40 L suspension culture. […] Cell lysates were stored at −80° C. until purification of the recombinant proteins was undertaken as described below.
# Enzyme Isolation: All purification procedures were carried out at 4° C. unless otherwise noted. Buffers used are: buffer A: 20 mM Tris-HCl, pH 7.6, containing 50 mM NaCl, 20 mM NaF, 20 mM β-Glycerophosphate, 500 μM sodium orthovanadate, 2.5 mM metabisulfite, 5 mM benzamidine, 1 mM EDTA, 0.5 mM EGTA, 10% glycerol, 1 mM DTT, 1× Complete™ protease inhibitors; buffer B: same as buffer A, except 150 mM NaCl, and buffer C: same as buffer A, except 500 mM NaCl.
# Isolation of rhIKK-2 homodimer: A 10-liter culture of baculovirus-expressing IKK-2 tagged with FLAG peptide was centrifuged and the cell pellet (MOI=0.1 and 1=72 h) was re-suspended in buffer A. These cells were microfluidized, and centrifuged at 100,000×g for 45 min. Supernatant was passed over a G-25 column equilibrated with Buffer A. Protein peak was collected and incubated with anti-FLAG affinity resin on a rotator overnight in buffer B. The resin was washed in batch with 10-15 bed volumes of buffer C. Washed resin was poured into a column and rhIKK-2 homodimer was eluted using 5 bed volumes of buffer B containing FLAG peptide. 5 mM DTT, 0.1% NP-40 and BSA (concentrated to 0.1% in final amount) was added to the eluted enzyme before concentrating in using an Amicon membrane with a molecular weight cut-off of 30 kDa. Enzyme was aliquoted and stored at −80° C.
# IKK-2 Resin Enzyme Assay: IKK-2 kinase activity was measured using a biotinylated IκBα peptide (Gly-Leu-Lys-Lys-Glu-Arg-Leu-Leu-Asp-Asp-Arg-His-Asp-Ser32-Gly-Leu-Asp-Ser36-Met-Lys-Asp-Glu-Glu) (American Peptide Co.). 20 μL of the standard reaction mixture contained 5 μM biotinylated IκBα peptide, 0.1 μCi/reaction [γ-^33P] ATP (Amersham) (about 1×10^5 cpm), 1 μM ATP (Sigma), 1 mM DTT (Sigma), 2 mM MgCl2 (Sigma), 2 mM MnCl2 (Sigma), 10 mM NaF (Sigma), 25 mM Hepes (Sigma) buffer, pH 7.6 and 20 μL enzyme solution and 10 μL inhibitor in a final volume of 50 μL. After incubation at 25° C. for 30 min, 150 μL resin (Dowex anion-exchange resin AG1X8 200-400 mesh) in 900 mM formate, pH 3.0 was added to each well to stop the reaction. Resin was allowed to settle for 1 h and 50 μL of supernatant was removed to a Micolite-2 flat bottom plate (Dynex). […]
row,SMILES,IC50
1,"NC(=O)Nc1cn(-c2ccc(-c3cc(F)ccc3OCC(=O)O)cc2)nc1C(N)=O [Example 259, [(4′-{3-(aminocarbonyl)-4-[(aminocarbonyl)amino]-1H-pyrazol-1-yl}-5-fluoro-1,1′-biphenyl-2-yl)oxy]acetic acid]",4.01 µM
2,"NC(=O)Nc1cn(-c2cccc(-c3ccc(O)cc3)c2)nc1C(N)=O [Example 47, 4-[(aminocarbonyl)amino]-1-(4′-hydroxy-1,1 ′-biphenyl-3-yl)-1H-pyrazole-3-carboxamide]",0.66 µM
3,"CNC(=O)c1ccc(-c2ccc(-n3cc(NC(N)=O)c(C(N)=O)n3)cc2)cc1 [Example 145, 4-[(aminocarbonyl)amino]-1-{4′-[(methylamino)carbonyl]-1,1′-biphenyl-4-yl}-1H-pyrazole-3-carboxamide]",0.24 µM
4,"NC(=O)Nc1cn(-c2ccc(-c3cccc(CO)c3)cc2)nc1C(N)=O [Example 39, 4-[(aminocarbonyl)amino]-1-[3′-(hydroxymethyl)-1,1′-biphenyl-4-yl]-1H-pyrazole-3-carboxamide]",1.34 µM
5,"NC(=O)Nc1cn(-c2cccc(-c3ccsc3)c2)nc1C(N)=O [Example 43, 4-[(aminocarbonyl)amino]-1-(3-thien-3-ylphenyl)-1H-pyrazole-3-carboxamide]",8.54 µM
6,"CCOc1ccc(-c2cccc(-n3cc(NC(N)=O)c(C(N)=O)n3)c2)cc1 [Example 355, 4-[(aminocarbonyl)amino]-1-(4′-ethoxy-1,1′-biphenyl-3-yl)-1H-pyrazole-3-carboxamide]",6.15 µM
7,"N#CCOc1ccccc1-c1cccc(-n2cc(NC(N)=O)c(C(N)=O)n2)c1 [Example 176, 4-[(aminocarbonyl)amino]-1-[2′-(cyanomethoxy)-1,1′-biphenyl-3-yl]-1H-pyrazole-3-carboxamide]",0.18 µM
8,"NC(=O)Nc1cn(-c2cccc(-c3ccc4c(c3)OCO4)c2)nc1C(N)=O [Example 62, 4-[(aminocarbonyl)amino]-1-[3-(1,3-benzodioxol-5-yl)phenyl]-1H-pyrazole-3-carboxamide]",7.91 µM
9,"NC(=O)Nc1cn(-c2ccc(C(=O)N3CCCCC3)cc2)nc1C(N)=O [Example 303, 4-[(aminocarbonyl)amino]-1-[4-(piperidin-1-ylcarbonyl)phenyl]-1H-pyrazole-3-carboxamide]",1.4 µM
10,CN(C)c1ccc(-c2cccc(-n3cc(NC(N)=O)c(C(N)=O)n3)c2)cc1 [Example 61],6.21 µM
11,"NC(=O)Nc1cn(-c2ccc([S+]([O-])c3ccccc3O)cc2)nc1C(N)=O (stereo not drawn) [Example 285, 1-(1-(4-(2-hydroxyphenylsulfinyl)phenyl)-3-carbamoyl-1H-pyrazol-4-yl)urea]",0.578 µM
12,"CCN(CC)C(=O)c1ccc(-c2ccc(-n3cc(NC(N)=O)c(C(N)=O)n3)cc2)cc1 [Example 143, 4-[(aminocarbonyl)amino]-1-{4′-[(diethylamino)carbonyl]-1,1′-biphenyl-4-yl}-1H-pyrazole-3-carboxamide]",3.31 µM
13,"CC(C)(C)NC(=O)c1cccc(-c2ccc(-n3cc(NC(N)=O)c(C(N)=O)n3)cc2)c1 [Example 31, 4-[(aminocarbonyl)amino]-1-{3′-[(tert-butylamino)carbonyl]-1,1′-biphenyl-4-yl}-1H-pyrazole-3-carboxamide]",4.79 µM
14,"NCc1cccc(-c2cccc(-n3cc(NC(N)=O)c(C(N)=O)n3)c2)c1 [Example 78, 4-[(aminocarbonyl)amino]-1-[3′-(aminomethyl)-1,1′-biphenyl-3-yl]-1H-pyrazole-3-carboxamide]",0.81 µM
15,"NC(=O)Nc1cn(-c2cccc(-c3ccccc3-c3ccccc3)c2)nc1C(N)=O [Example 371, 4-[(aminocarbonyl)amino]-1-(1,1′:2′,1″-terphenyl-3-yl)-1H-pyrazole-3-carboxamide]",1.09 µM
16,"NC(=O)Nc1cn(-c2ccc(-c3cccc(OCC(=O)O)c3)cc2)nc1C(N)=O [Example 258, [(4′-{3-(aminocarbonyl)-4-[(aminocarbonyl)amino]-1H-pyrazol-1-yl}-1,1′-biphenyl-3-yl)oxy]acetic acid]",1.02 µM
17,"NC(=O)Nc1cn(-c2ccc(F)c(F)c2)nc1C(N)=O [Example 218, 4-[(aminocarbonyl)amino]-1-(3,4-difluorophenyl)-1H-pyrazole-3-carboxamide]",1.31 µM
18,"NC(=O)Nc1cn(-c2cccc(-c3cccc4ccccc34)c2)nc1C(N)=O [Example 360, 4-[(aminocarbonyl)amino]-1-[3-(1-naphthyl)phenyl]-1H-pyrazole-3-carboxamide]",> 20 µM
19,"NC(=O)Nc1cn(-c2ccc(B(O)O)cc2)nc1C(N)=O [Example 337, 4-{3-(aminocarbonyl)-4-[(aminocarbonyl)amino]-1H-pyrazol-1-yl}phenylboronic acid]",0.75 µM
20,"CCOc1cc(-n2cc(NC(N)=O)c(C(N)=O)n2)ccc1-c1ccccc1O [Example 232, 4-[(aminocarbonyl)amino]-1-(2-ethoxy-2′-hydroxy-1,1′-biphenyl-4-yl)-1H-pyrazole-3-carboxamide]",10.3 µM
21,"NC(=O)Nc1cn(-c2ccc(-c3ccccc3F)cc2)nc1C(N)=O [Example 30, 4-[(aminocarbonyl)amino]-1-(2′-fluoro-1,1′-biphenyl-4-yl)-1H-pyrazole-3-carboxamide]",3 µM
22,"NC(=O)Nc1cn(-c2cccc(-c3cccc(N)c3)c2)nc1C(N)=O [Example 50, 1-(3′-amino-1,1′-biphenyl-3-yl)-4-[(aminocarbonyl)amino]-1H-pyrazole-3-carboxamide]",2.08 µM
23,"COc1ccc(-n2cc(NC(N)=O)c(C(N)=O)n2)cc1 [Example 10, 4-[(aminocarbonyl)amino]-1-(4-methoxyphenyl)-1H-pyrazole-3-carboxamide trifluoroacetate]",2.91 µM
24,"NC(=O)Nc1cn(-c2ccc(-c3cccnc3)cc2)nc1C(N)=O [Example 21, 4-[(aminocarbonyl)amino]-1-(4-pyridin-3-ylphenyl)-1H-pyrazole-3-carboxamide]",2.86 µM
